System: SEM cells
Assay: cell viability relative to DMSO control; higher = less cytotoxic
Details: 48 h
Outline: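 Library compounds in DMSO were pin-dosed into 1536-well plates (5 μl) holding NOMO1 or SEM (500 cells/well) or P12-Ichikawa (1000 cells/well) leukemia cells, across an 11-point threefold series of 47 μM to 0.79 nM. Each cell line had been adapted for at least four passages in each medium. CellTiter-Glo One luminescence was read after 48 h at 37°C. Viability is the per-plate percentage relative to DMSO wells, with cell-free wells as background.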

[1] = HPLM + 10% dialyzed FBS, 0.000781 µM
[2] = HPLM + 10% dialyzed FBS, 0.00234 µM
[3] = HPLM + 10% dialyzed FBS, 0.00702 µM
[4] = HPLM + 10% dialyzed FBS, 0.0211 µM
[5] = HPLM + 10% dialyzed FBS, 0.0632 µM
[6] = HPLM + 10% dialyzed FBS, 0.19 µM
[7] = HPLM + 10% dialyzed FBS, 0.569 µM
[8] = HPLM + 10% dialyzed FBS, 1.71 µM
[9] = HPLM + 10% dialyzed FBS, 5.12 µM
[10] = HPLM + 10% dialyzed FBS, 15.4 µM
[11] = HPLM + 10% dialyzed FBS, 46.1 µM
[12] = RPMI 5 mM glucose + 10% FBS, 0.000781 µM
[13] = RPMI 5 mM glucose + 10% FBS, 0.00234 µM
[14] = RPMI 5 mM glucose + 10% FBS, 0.00702 µM
[15] = RPMI 5 mM glucose + 10% FBS, 0.0211 µM
[16] = RPMI 5 mM glucose + 10% FBS, 0.0632 µM
[17] = RPMI 5 mM glucose + 10% FBS, 0.19 µM
[18] = RPMI 5 mM glucose + 10% FBS, 0.569 µM
[19] = RPMI 5 mM glucose + 10% FBS, 1.71 µM
[20] = RPMI 5 mM glucose + 10% FBS, 5.12 µM
[21] = RPMI 5 mM glucose + 10% FBS, 15.4 µM
[22] = RPMI 5 mM glucose + 10% FBS, 46.1 µM
[23] = RPMI 5 mM glucose + 10% dialyzed FBS, 0.000781 µM
[24] = RPMI 5 mM glucose + 10% dialyzed FBS, 0.00234 µM
[25] = RPMI 5 mM glucose + 10% dialyzed FBS, 0.00702 µM
[26] = RPMI 5 mM glucose + 10% dialyzed FBS, 0.0211 µM
[27] = RPMI 5 mM glucose + 10% dialyzed FBS, 0.0632 µM
[28] = RPMI 5 mM glucose + 10% dialyzed FBS, 0.19 µM
[29] = RPMI 5 mM glucose + 10% dialyzed FBS, 0.569 µM
[30] = RPMI 5 mM glucose + 10% dialyzed FBS, 1.71 µM
[31] = RPMI 5 mM glucose + 10% dialyzed FBS, 5.12 µM
[32] = RPMI 5 mM glucose + 10% dialyzed FBS, 15.4 µM
[33] = RPMI 5 mM glucose + 10% dialyzed FBS, 46.1 µM

Row | SMILES | cell viability [1] | cell viability [2] | cell viability [3] | cell viability [4] | cell viability [5] | cell viability [6] | cell viability [7] | cell viability [8] | cell viability [9] | cell viability [10] | cell viability [11] | cell viability [12] | cell viability [13] | cell viability [14] | cell viability [15] | cell viability [16] | cell viability [17] | cell viability [18] | cell viability [19] | cell viability [20] | cell viability [21] | cell viability [22] | cell viability [23] | cell viability [24] | cell viability [25] | cell viability [26] | cell viability [27] | cell viability [28] | cell viability [29] | cell viability [30] | cell viability [31] | cell viability [32] | cell viability [33]
1 | FC(F)(F)c1ccc(/C=C/c2nc(COc3ccc(CCCCn4ccnn4)cc3)co2)cc1 | 116% | 119% | 123% | 108% | 103% | 111% | 109% | 108% | 103% | 109% | 98.7% | 117% | 103% | 116% | 95.3% | 105% | 78.3% | 104% | 81% | 94.2% | 94.4% | 85.7% | 110% | 124% | 103% | 91.3% | 95.9% | 86% | 82.3% | 84.9% | 79.3% | 70.9% | 84%
2 | CN1[C@@H]2CC(OC(=O)[C@@H](CO)c3ccccc3)C[C@H]1[C@H]1O[C@H]12 (stereo partly specified) | 85.3% | 88.7% | 91% | 84.7% | 93.5% | 106% | 102% | 110% | 108% | 102% | 98% | 80.9% | 82.9% | 80.7% | 85% | 90.6% | 113% | 96.2% | 106% | 89.2% | 97% | 97.9% | 90.2% | 88.8% | 105% | 86.3% | 96.3% | 105% | 117% | 114% | 101% | 113% | 108%
3 | CN[S+](=O)([O-])Cc1ccc2[nH]cc(CCN(C)C)c2c1 | 95.3% | 104% | 102% | 111% | 112% | 118% | 113% | 119% | 118% | 129% | 118% | 89.2% | 114% | 104% | 114% | 107% | 119% | 121% | 115% | 126% | 128% | 128% | 93.4% | 86% | 87% | 91.8% | 94.1% | 102% | 95.7% | 106% | 94.8% | 111% | 92.9%
4 | CC1(C)CC(=O)c2c(C(F)(F)F)nn(-c3ccc(C(N)=O)c(NC4CCC(O)CC4)c3)c2C1 (stereo unspecified) | 93.6% | 84.7% | 88.6% | 98% | 93.5% | 36.8% | 20.9% | 18.4% | 19.2% | 16.9% | 77.6% | 105% | 97.5% | 84.4% | 84.2% | 111% | 37.1% | 15.7% | 19.4% | 16.1% | 17.4% | 99.9% | 83.7% | 102% | 66.3% | 63.5% | 76.6% | 34.4% | 12.8% | 20.6% | 17.8% | 18.1% | 84.3%
5 | Oc1ccc2c3c1O[C@H]1c4[nH]c5c(c4C[C@@]4(O)[C@@H](C2)N(CC2CC2)CC[C@]314)C[C@@]1(O)[C@H]2Cc3ccc(O)c4c3[C@@]1(CCN2CC1CC1)[C@H]5O4 | 70.3% | 88.3% | 101% | 92.6% | 108% | 99.4% | 98.4% | 107% | 113% | 113% | 119% | 86.9% | 80.2% | 102% | 85.7% | 123% | 119% | 123% | 128% | 131% | 119% | 123% | 89.5% | 92.6% | 104% | 80.3% | 107% | 106% | 111% | 107% | 98.4% | 99.6% | 113%
6 | NC1(Cc2ccc(Cl)cc2)CCN(c2ncnc3[nH]ccc23)CC1 | 103% | 106% | 96% | 100% | 92.8% | 91.6% | 95.7% | 75.7% | 66.9% | 6.62% | 2.55% | 107% | 117% | 118% | 116% | 112% | 106% | 86.1% | 79.6% | 59.8% | 4.37% | 2.8% | 106% | 98.6% | 99.7% | 92.7% | 81.8% | 83.7% | 82.9% | 74.5% | 54.7% | 6.24% | 2.65%
7 | Cc1cn2c(-c3cn[nH]c3)cnc2c(Nc2ccc(C(=O)N3CCNCC3)cc2F)n1 | 105% | 106% | 119% | 103% | 109% | 105% | 107% | 108% | 87.8% | 45.9% | 17% | 98.7% | 99.8% | 107% | 98.5% | 112% | 114% | 96.7% | 109% | 90.6% | 48.3% | 11.8% | 107% | 104% | 105% | 99.5% | 122% | 102% | 114% | 98.2% | 91.7% | 49.9% | 9.99%

— the supplement of paper PMC11451515
